PubChem BioAssay (NCI)
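In this assay, cells in 96-well plates receive the compound at five concentrations for 48 hours. Endpoints are linearly interpolated between the surrounding concentrations. TGI is the concentration that stops growth completely.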

Legend:
Assay in all cases: growth of human tumour cells (NCI), 48 h
SNB-19 CNS = test system: SNB-19 CNS
HCC-2998 colon = test system: HCC-2998 colon
UACC-257 melanoma = test system: UACC-257 melanoma
IGROV1 ovarian = test system: IGROV1 ovarian
NCI-H460 lung = test system: NCI-H460 lung
T-47D breast = test system: T-47D breast
SF-539 CNS = test system: SF-539 CNS
M14 melanoma = test system: M14 melanoma
786-0 renal = test system: 786-0 renal
MALME-3M melanoma = test system: MALME-3M melanoma
NCI-H522 lung = test system: NCI-H522 lung
HCT-15 colon = test system: HCT-15 colon
SF-295 CNS = test system: SF-295 CNS
K-562 leukemia = test system: K-562 leukemia
COLO 205 colon = test system: COLO 205 colon
OVCAR-5 ovarian = test system: OVCAR-5 ovarian
SK-MEL-28 melanoma = test system: SK-MEL-28 melanoma
BT-549 breast = test system: BT-549 breast
MCF7 breast = test system: MCF7 breast
HS 578T breast = test system: HS 578T breast
SNB-75 CNS = test system: SNB-75 CNS
UO-31 renal = test system: UO-31 renal
PC-3 prostate = test system: PC-3 prostate
CAKI-1 renal = test system: CAKI-1 renal
OVCAR-3 ovarian = test system: OVCAR-3 ovarian
HCT-116 colon = test system: HCT-116 colon
U251 CNS = test system: U251 CNS
A498 renal = test system: A498 renal
MDA-MB-435 = test system: MDA-MB-435
SK-MEL-5 melanoma = test system: SK-MEL-5 melanoma
SF-268 CNS = test system: SF-268 CNS
HOP-92 NSCLC = test system: HOP-92 NSCLC
MDA-N = test system: MDA-N
NCI-H226 lung = test system: NCI-H226 lung
SK-OV-3 ovarian = test system: SK-OV-3 ovarian
TK-10 renal = test system: TK-10 renal
ACHN renal = test system: ACHN renal
SN12C renal = test system: SN12C renal
NCI/ADR-RES ovarian = test system: NCI/ADR-RES ovarian
KM12 colon = test system: KM12 colon
MDA-MB-231 breast = test system: MDA-MB-231 breast
SK-MEL-2 melanoma = test system: SK-MEL-2 melanoma
DU-145 prostate = test system: DU-145 prostate
RPMI-8226 leukemia = test system: RPMI-8226 leukemia
HT29 colon = test system: HT29 colon
MOLT-4 leukemia = test system: MOLT-4 leukemia
OVCAR-8 ovarian = test system: OVCAR-8 ovarian
NCI-H23 lung = test system: NCI-H23 lung
RXF 393 renal = test system: RXF 393 renal
LOX IMVI melanoma = test system: LOX IMVI melanoma
HOP-62 NSCLC = test system: HOP-62 NSCLC
OVCAR-4 ovarian = test system: OVCAR-4 ovarian
EKVX NSCLC = test system: EKVX NSCLC
SW-620 colon = test system: SW-620 colon
SR leukemia = test system: SR leukemia
HL-60(TB) leukemia = test system: HL-60(TB) leukemia
CCRF-CEM leukemia = test system: CCRF-CEM leukemia
A549 NSCLC = test system: A549 NSCLC
UACC-62 melanoma = test system: UACC-62 melanoma

SMILES: [N-]=[N+]=NCC1OC(n2cnc3c(N)ncnc32)C2OC12 (stereo not given)
- TGI (SNB-19 CNS): > 100 µM
- TGI (HCC-2998 colon): > 100 µM
- TGI (UACC-257 melanoma): > 100 µM
- TGI (IGROV1 ovarian): > 100 µM
- TGI (NCI-H460 lung): > 100 µM
- TGI (T-47D breast): > 100 µM
- TGI (SF-539 CNS): > 100 µM
- TGI (M14 melanoma): > 100 µM
- TGI (786-0 renal): > 100 µM
- TGI (MALME-3M melanoma): > 100 µM
- TGI (NCI-H522 lung): > 100 µM
- TGI (HCT-15 colon): > 100 µM
- TGI (SF-295 CNS): > 100 µM
- TGI (K-562 leukemia): > 100 µM
- TGI (COLO 205 colon): > 100 µM
- TGI (OVCAR-5 ovarian): > 100 µM
- TGI (SK-MEL-28 melanoma): > 100 µM
- TGI (BT-549 breast): > 100 µM
- TGI (MCF7 breast): > 100 µM
- TGI (HS 578T breast): > 100 µM
- TGI (SNB-75 CNS): > 100 µM
- TGI (UO-31 renal): > 100 µM
- TGI (PC-3 prostate): > 100 µM
- TGI (CAKI-1 renal): > 100 µM
- TGI (OVCAR-3 ovarian): > 100 µM
- TGI (HCT-116 colon): > 100 µM
- TGI (U251 CNS): > 100 µM
- TGI (A498 renal): > 100 µM
- TGI (MDA-MB-435): > 100 µM
- TGI (SK-MEL-5 melanoma): > 100000 nM
- TGI (SF-268 CNS): > 100 µM
- TGI (HOP-92 NSCLC): > 100 µM
- TGI (MDA-N): > 100 µM
- TGI (NCI-H226 lung): > 100 µM
- TGI (SK-OV-3 ovarian): > 100 µM
- TGI (TK-10 renal): > 100 µM
- TGI (ACHN renal): > 100 µM
- TGI (SN12C renal): > 100 µM
- TGI (NCI/ADR-RES ovarian): > 100 µM
- TGI (KM12 colon): > 100 µM
- TGI (MDA-MB-231 breast): > 100 µM
- TGI (SK-MEL-2 melanoma): > 100 µM
- TGI (DU-145 prostate): > 100 µM
- TGI (RPMI-8226 leukemia): > 100 µM
- TGI (HT29 colon): > 100 µM
- TGI (MOLT-4 leukemia): > 100 µM
- TGI (OVCAR-8 ovarian): > 100 µM
- TGI (NCI-H23 lung): > 100 µM
- TGI (RXF 393 renal): > 100 µM
- TGI (LOX IMVI melanoma): > 100 µM
- TGI (HOP-62 NSCLC): > 100 µM
- TGI (OVCAR-4 ovarian): > 100 µM
- TGI (EKVX NSCLC): > 100 µM
- TGI (SW-620 colon): > 100 µM
- TGI (SR leukemia): > 100 µM
- TGI (HL-60(TB) leukemia): > 100 µM
- TGI (CCRF-CEM leukemia): > 100 µM
- TGI (A549 NSCLC): > 100 µM
- TGI (UACC-62 melanoma): > 100 µM

SMILES: CC1(C)[C@@H]2CC[C@@]1(C)C1(SS1=O)C21Cc2ccccc2C1 (stereo not given in full)
- TGI (SNB-19 CNS): > 100 µM
- TGI (HCC-2998 colon): 36.9 µM
- TGI (UACC-257 melanoma): 55.9 µM
- TGI (IGROV1 ovarian): 37.2 µM
- TGI (NCI-H460 lung): 52.2 µM
- TGI (T-47D breast): 70.3 µM
- TGI (SF-539 CNS): 72.3 µM
- TGI (M14 melanoma): > 100 µM
- TGI (786-0 renal): 31.3 µM
- TGI (MALME-3M melanoma): > 100 µM
- TGI (NCI-H522 lung): 30.8 µM
- TGI (HCT-15 colon): 63.7 µM
- TGI (SF-295 CNS): > 100 µM
- TGI (K-562 leukemia): 51.6 µM
- TGI (COLO 205 colon): 99 µM
- TGI (OVCAR-5 ovarian): 45.7 µM
- TGI (SK-MEL-28 melanoma): 54 µM
- TGI (BT-549 breast): 85.9 µM
- TGI (MCF7 breast): 63.9 µM
- TGI (HS 578T breast): > 100 µM
- TGI (SNB-75 CNS): > 100 µM
- TGI (UO-31 renal): 35.8 µM
- TGI (PC-3 prostate): 41.7 µM
- TGI (CAKI-1 renal): 45.6 µM
- TGI (OVCAR-3 ovarian): > 100 µM
- TGI (HCT-116 colon): 28.5 µM
- TGI (U251 CNS): 84.5 µM
- TGI (A498 renal): 97.3 µM
- TGI (MDA-MB-435): 99 µM
- TGI (SF-268 CNS): > 100 µM
- TGI (HOP-92 NSCLC): 67.5 µM
- TGI (MDA-N): 35.5 µM
- TGI (NCI-H226 lung): > 100 µM
- TGI (SK-OV-3 ovarian): > 100 µM
- TGI (TK-10 renal): 38.7 µM
- TGI (ACHN renal): 45.5 µM
- TGI (SN12C renal): 35.8 µM
- TGI (NCI/ADR-RES ovarian): 67.5 µM
- TGI (KM12 colon): > 100 µM
- TGI (MDA-MB-231 breast): 34.9 µM
- TGI (SK-MEL-2 melanoma): 60.5 µM
- TGI (DU-145 prostate): 45.4 µM
- TGI (RPMI-8226 leukemia): 50.5 µM
- TGI (HT29 colon): 40.9 µM
- TGI (MOLT-4 leukemia): 58.4 µM
- TGI (OVCAR-8 ovarian): 31 µM
- TGI (NCI-H23 lung): > 100 µM
- TGI (RXF 393 renal): 38.9 µM
- TGI (LOX IMVI melanoma): 28.5 µM
- TGI (HOP-62 NSCLC): > 100 µM
- TGI (OVCAR-4 ovarian): 32 µM
- TGI (EKVX NSCLC): 73 µM
- TGI (SW-620 colon): 36.1 µM
- TGI (SR leukemia): 54.5 µM
- TGI (HL-60(TB) leukemia): 42.5 µM
- TGI (CCRF-CEM leukemia): 36.3 µM
- TGI (A549 NSCLC): > 100 µM
- TGI (UACC-62 melanoma): 70 µM

SMILES: COc1ccc(C2Oc3ccc(Cl)cc3C=C2[N+](=O)[O-])cc1OC (stereo not given)
- TGI (SNB-19 CNS): 5.02 µM
- TGI (HCC-2998 colon): 3.33 µM
- TGI (UACC-257 melanoma): 4.07 µM
- TGI (IGROV1 ovarian): 3.35 µM
- TGI (NCI-H460 lung): 5.95 µM
- TGI (T-47D breast): 4.35 µM
- TGI (SF-539 CNS): 3.13 µM
- TGI (M14 melanoma): 1.63 µM
- TGI (786-0 renal): 0.871 µM
- TGI (MALME-3M melanoma): 4.28 µM
- TGI (NCI-H522 lung): 2.66 µM
- TGI (HCT-15 colon): 3.09 µM
- TGI (SF-295 CNS): 3.46 µM
- TGI (K-562 leukemia): 1.08 µM
- TGI (COLO 205 colon): 4.41 µM
- TGI (OVCAR-5 ovarian): 3.14 µM
- TGI (SK-MEL-28 melanoma): 3.58 µM
- TGI (BT-549 breast): 2.62 µM
- TGI (MCF7 breast): 3.39 µM
- TGI (HS 578T breast): 15.5 µM
- TGI (SNB-75 CNS): 2.45 µM
- TGI (UO-31 renal): 3.47 µM
- TGI (PC-3 prostate): 2.95 µM
- TGI (CAKI-1 renal): 3.93 µM
- TGI (OVCAR-3 ovarian): 2.06 µM
- TGI (HCT-116 colon): 1.62 µM
- TGI (U251 CNS): 2.35 µM
- TGI (A498 renal): 7.36 µM
- TGI (MDA-MB-435): 1.21 µM
- TGI (SK-MEL-5 melanoma): 2960 nM
- TGI (SF-268 CNS): 5 µM
- TGI (HOP-92 NSCLC): 4.33 µM
- TGI (MDA-N): 1.11 µM
- TGI (NCI-H226 lung): 4.24 µM
- TGI (SK-OV-3 ovarian): 6.11 µM
- TGI (TK-10 renal): 2.87 µM
- TGI (ACHN renal): 2.77 µM
- TGI (SN12C renal): 2.82 µM
- TGI (NCI/ADR-RES ovarian): 2.12 µM
- TGI (KM12 colon): 2.86 µM
- TGI (MDA-MB-231 breast): 2.59 µM
- TGI (SK-MEL-2 melanoma): 3.05 µM
- TGI (DU-145 prostate): 2.97 µM
- TGI (RPMI-8226 leukemia): 0.608 µM
- TGI (MOLT-4 leukemia): 0.733 µM
- TGI (OVCAR-8 ovarian): 2.64 µM
- TGI (NCI-H23 lung): 4.35 µM
- TGI (RXF 393 renal): 3.04 µM
- TGI (LOX IMVI melanoma): 1.43 µM
- TGI (HOP-62 NSCLC): 3.12 µM
- TGI (OVCAR-4 ovarian): 3.46 µM
- TGI (EKVX NSCLC): 7.13 µM
- TGI (SW-620 colon): 0.497 µM
- TGI (SR leukemia): 0.307 µM
- TGI (HL-60(TB) leukemia): 0.47 µM
- TGI (CCRF-CEM leukemia): 0.372 µM
- TGI (A549 NSCLC): 5.04 µM
- TGI (UACC-62 melanoma): 3.65 µM
